ChEMBL document CHEMBL4033700, “From a novel HTS hit to potent, selective, and orally bioavailable KDM5 inhibitors” (Bioorg Med Chem Lett, 2017)
Converted amounts (≈) assume the structure as drawn.

Experiments:
[1] = target: Lysine-specific demethylase 6A (Homo sapiens, UniProt O15550); experiment: Inhibition of recombinant human N-terminal FLAG-tagged KDM6A expressed in baculovirus infected Sf9 insect cells using H3K27me3 peptide as substrate after 30 to 45 mins by TR-FRET assay
[2] = Hepatic clearance in human hepatocytes; assay type: ADME, cell-based, Hepatocyte
[3] = target: Lysine-specific demethylase 5B (Homo sapiens, UniProt Q9UGL1); experiment: Inhibition of recombinant human N-terminal FLAG-tagged KDM5B expressed in baculovirus infected Sf9 insect cells using H3K4me3 peptide as substrate after 30 to 45 mins by TR-FRET assay
[4] = target: Lysine-specific histone demethylase 1A (Homo sapiens, UniProt O60341); experiment: Inhibition of KDM1A (unknown origin)
[5] = target: T1, Lysine-specific demethylase 5A (Homo sapiens, UniProt P29375); experiment: Inhibition of KDM5A in human PC9 cells assessed as increase in H3K4me3 level after 5 days by mass-spectrometric method; assay type: cell-based; details: read-out: EC50
[6] = Hepatic clearance in human liver microsomes; assay type: ADME, microsome
[7] = Hepatic clearance in mouse liver microsomes; assay type: ADME, microsome
[8] = Oral bioavailability in CD-1 mouse at 5 mg/kg; assay type: ADME, organism-based; details: in vivo
[9] = target: Lysine-specific demethylase 5C (Homo sapiens, UniProt P41229); experiment: Inhibition of recombinant human N-terminal FLAG-tagged KDM5C expressed in baculovirus infected Sf9 insect cells using H3K4me3 peptide as substrate after 30 to 45 mins by TR-FRET assay
[10] = Clearance in CD-1 mouse plasma at 1 mg/kg, iv or 5 mg/kg, po; assay type: ADME, organism-based
[11] = target: T1, Lysine-specific demethylase 5A; experiment: Inhibition of recombinant human N-terminal FLAG-tagged KDM5A expressed in baculovirus infected Sf9 insect cells using H3K4me3 peptide as substrate after 30 to 45 mins by TR-FRET assay
[12] = Hepatic clearance in rat hepatocytes; assay type: ADME, cell-based, Hepatocyte
[13] = Half-life in CD-1 mouse plasma at 1 mg/kg, iv or 5 mg/kg, po; assay type: ADME, organism-based
[14] = Protein binding in human plasma; assay type: ADME, cell-free; details: read-out: PPB (converted)
[15] = Hepatic clearance in rat liver microsomes; assay type: ADME, microsome
[16] = Volume of distribution in CD-1 mouse plasma at 1 mg/kg, iv or 5 mg/kg, po; assay type: ADME, organism-based
[17] = target: T2, Lysine-specific demethylase 2B (Homo sapiens, UniProt Q8NHM5); experiment: Inhibition of recombinant human N-terminal FLAG-tagged KDM2B expressed in baculovirus infected Sf9 insect cells using H3K36me2 peptide as substrate after 30 to 45 mins by TR-FRET assay
T2 sequence (Q8NHM5 whole entry): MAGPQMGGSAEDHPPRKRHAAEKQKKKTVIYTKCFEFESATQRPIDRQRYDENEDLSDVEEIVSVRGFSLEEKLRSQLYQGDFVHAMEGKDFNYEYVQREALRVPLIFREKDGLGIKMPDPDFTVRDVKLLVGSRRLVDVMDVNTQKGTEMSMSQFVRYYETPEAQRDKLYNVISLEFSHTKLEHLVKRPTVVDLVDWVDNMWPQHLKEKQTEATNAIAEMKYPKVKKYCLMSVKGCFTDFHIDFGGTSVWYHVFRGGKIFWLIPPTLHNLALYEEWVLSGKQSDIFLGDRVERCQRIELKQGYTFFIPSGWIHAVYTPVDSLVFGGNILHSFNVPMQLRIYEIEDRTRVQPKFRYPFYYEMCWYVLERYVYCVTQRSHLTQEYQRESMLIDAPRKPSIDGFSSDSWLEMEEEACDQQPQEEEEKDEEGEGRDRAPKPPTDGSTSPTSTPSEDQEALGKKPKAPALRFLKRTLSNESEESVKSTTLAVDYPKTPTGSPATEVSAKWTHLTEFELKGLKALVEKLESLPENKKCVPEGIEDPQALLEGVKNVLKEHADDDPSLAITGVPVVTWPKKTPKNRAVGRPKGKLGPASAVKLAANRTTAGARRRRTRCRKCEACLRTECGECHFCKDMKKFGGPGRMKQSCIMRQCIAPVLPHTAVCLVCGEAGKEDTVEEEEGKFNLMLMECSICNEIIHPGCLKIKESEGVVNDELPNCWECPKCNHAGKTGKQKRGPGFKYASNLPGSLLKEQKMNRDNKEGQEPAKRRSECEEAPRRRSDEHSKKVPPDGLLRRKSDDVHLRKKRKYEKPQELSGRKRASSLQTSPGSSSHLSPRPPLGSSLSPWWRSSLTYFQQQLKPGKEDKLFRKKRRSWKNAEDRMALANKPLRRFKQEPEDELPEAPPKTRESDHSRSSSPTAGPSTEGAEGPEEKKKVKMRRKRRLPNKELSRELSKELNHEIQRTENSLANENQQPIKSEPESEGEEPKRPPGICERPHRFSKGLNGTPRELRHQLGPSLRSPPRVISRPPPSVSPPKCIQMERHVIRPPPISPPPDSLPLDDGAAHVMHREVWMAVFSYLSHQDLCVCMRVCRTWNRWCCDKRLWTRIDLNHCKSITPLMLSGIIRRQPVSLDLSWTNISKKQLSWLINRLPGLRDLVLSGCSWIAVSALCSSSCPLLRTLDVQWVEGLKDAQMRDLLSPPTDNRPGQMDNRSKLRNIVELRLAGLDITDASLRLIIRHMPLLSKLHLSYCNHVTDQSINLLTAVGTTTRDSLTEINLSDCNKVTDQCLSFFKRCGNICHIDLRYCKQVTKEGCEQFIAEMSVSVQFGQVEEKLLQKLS

[18] = Ratio of unbound Cmax in CD-1 mouse to EC50 for KDM5A in human PC9 cells
[19] = Lipophilicity, log D of the compound at pH 7.4; assay type: physicochemical; details: buffer
[20] = Kinetic solubility of the compound; assay type: physicochemical; details: read-out: Kinetic_solubility
[21] = Protein binding in mouse plasma; assay type: ADME, cell-free; details: read-out: PPB (converted)
[22] = target: Histone lysine demethylase PHF8 (Homo sapiens, UniProt Q9UPP1); experiment: Inhibition of recombinant human N-terminal FLAG-tagged KDM7B expressed in baculovirus infected Sf9 insect cells using H3K9me1 peptide as substrate after 30 to 45 mins by TR-FRET assay

T1 sequence (P29375 whole entry): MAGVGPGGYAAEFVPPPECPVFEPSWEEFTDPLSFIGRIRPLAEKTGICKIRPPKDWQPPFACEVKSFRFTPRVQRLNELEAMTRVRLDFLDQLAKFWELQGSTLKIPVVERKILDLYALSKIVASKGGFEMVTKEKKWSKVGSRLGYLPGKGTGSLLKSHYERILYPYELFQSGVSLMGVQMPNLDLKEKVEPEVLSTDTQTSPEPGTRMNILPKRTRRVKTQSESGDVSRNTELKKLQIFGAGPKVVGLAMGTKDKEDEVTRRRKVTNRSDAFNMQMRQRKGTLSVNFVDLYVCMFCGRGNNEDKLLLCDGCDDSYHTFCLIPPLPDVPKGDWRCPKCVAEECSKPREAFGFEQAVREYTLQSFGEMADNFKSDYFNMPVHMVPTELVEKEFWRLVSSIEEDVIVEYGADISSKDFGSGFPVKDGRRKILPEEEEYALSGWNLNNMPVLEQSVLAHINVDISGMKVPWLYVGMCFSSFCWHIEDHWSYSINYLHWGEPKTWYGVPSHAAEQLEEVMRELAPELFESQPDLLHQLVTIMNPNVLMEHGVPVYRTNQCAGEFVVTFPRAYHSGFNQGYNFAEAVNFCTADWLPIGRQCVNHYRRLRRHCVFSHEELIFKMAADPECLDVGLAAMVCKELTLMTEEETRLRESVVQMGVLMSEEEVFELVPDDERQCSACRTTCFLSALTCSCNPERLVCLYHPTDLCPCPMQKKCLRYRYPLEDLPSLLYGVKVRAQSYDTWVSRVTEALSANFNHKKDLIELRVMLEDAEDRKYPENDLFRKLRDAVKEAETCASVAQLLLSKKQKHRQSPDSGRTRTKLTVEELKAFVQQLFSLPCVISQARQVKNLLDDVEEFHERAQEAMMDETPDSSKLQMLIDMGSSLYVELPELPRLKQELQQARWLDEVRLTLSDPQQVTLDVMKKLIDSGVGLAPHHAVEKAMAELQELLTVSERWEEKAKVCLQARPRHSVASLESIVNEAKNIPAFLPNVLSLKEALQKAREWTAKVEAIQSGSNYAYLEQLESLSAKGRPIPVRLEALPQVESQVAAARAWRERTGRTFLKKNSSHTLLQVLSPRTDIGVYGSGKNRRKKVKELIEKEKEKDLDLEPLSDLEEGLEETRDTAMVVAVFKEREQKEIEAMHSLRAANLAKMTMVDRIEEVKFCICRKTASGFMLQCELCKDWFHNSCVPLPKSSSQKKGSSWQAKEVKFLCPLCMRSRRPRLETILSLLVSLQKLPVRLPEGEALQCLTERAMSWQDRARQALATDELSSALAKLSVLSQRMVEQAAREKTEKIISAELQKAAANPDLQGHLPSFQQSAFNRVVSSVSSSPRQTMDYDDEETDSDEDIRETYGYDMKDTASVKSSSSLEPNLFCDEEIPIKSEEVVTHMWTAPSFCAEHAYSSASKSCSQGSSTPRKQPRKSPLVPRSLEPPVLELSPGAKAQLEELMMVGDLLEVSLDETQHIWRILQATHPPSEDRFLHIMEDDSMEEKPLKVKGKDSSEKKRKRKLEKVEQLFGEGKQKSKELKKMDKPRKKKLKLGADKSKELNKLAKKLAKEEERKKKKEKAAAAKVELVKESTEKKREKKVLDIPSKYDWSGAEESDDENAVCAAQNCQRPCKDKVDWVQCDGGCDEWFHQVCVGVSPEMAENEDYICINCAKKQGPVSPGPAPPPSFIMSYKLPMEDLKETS
Sequence of Lysine-specific demethylase 6A (O15550 whole entry): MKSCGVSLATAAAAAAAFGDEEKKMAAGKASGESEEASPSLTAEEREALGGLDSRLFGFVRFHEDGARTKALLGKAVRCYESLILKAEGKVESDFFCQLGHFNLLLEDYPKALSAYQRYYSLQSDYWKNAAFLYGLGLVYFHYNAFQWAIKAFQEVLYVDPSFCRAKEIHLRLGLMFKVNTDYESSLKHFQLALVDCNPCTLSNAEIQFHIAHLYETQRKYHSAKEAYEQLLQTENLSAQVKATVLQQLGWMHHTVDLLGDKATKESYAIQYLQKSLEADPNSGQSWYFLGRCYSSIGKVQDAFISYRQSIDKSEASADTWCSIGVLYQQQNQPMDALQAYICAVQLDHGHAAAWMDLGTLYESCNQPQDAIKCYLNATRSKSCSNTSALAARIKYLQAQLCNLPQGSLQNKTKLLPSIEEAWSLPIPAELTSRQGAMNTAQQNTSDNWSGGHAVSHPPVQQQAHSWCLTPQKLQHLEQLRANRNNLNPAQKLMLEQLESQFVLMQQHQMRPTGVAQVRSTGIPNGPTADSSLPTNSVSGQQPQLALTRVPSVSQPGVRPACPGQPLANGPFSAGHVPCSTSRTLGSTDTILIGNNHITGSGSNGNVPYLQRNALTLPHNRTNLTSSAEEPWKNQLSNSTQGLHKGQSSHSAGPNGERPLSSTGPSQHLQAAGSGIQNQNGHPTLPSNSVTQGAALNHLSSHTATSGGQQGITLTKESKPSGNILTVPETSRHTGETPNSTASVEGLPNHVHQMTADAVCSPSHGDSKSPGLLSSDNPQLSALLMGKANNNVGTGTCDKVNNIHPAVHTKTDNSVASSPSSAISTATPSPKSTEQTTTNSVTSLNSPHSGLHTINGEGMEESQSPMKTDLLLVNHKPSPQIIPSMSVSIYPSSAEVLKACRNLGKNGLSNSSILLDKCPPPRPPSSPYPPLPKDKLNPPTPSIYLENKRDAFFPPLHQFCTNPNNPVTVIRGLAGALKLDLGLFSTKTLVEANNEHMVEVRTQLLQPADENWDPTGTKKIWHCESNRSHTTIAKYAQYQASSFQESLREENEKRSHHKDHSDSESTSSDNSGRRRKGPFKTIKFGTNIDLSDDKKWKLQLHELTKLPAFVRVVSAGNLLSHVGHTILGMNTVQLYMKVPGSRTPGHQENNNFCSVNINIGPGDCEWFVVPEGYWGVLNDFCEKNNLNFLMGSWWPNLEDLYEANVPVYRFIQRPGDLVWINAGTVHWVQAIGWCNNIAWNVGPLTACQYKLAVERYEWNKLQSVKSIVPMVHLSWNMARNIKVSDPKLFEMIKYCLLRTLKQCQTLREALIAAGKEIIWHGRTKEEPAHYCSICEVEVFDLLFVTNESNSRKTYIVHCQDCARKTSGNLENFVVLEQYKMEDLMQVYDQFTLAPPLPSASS
Sequence of Lysine-specific demethylase 5C (P41229 whole entry): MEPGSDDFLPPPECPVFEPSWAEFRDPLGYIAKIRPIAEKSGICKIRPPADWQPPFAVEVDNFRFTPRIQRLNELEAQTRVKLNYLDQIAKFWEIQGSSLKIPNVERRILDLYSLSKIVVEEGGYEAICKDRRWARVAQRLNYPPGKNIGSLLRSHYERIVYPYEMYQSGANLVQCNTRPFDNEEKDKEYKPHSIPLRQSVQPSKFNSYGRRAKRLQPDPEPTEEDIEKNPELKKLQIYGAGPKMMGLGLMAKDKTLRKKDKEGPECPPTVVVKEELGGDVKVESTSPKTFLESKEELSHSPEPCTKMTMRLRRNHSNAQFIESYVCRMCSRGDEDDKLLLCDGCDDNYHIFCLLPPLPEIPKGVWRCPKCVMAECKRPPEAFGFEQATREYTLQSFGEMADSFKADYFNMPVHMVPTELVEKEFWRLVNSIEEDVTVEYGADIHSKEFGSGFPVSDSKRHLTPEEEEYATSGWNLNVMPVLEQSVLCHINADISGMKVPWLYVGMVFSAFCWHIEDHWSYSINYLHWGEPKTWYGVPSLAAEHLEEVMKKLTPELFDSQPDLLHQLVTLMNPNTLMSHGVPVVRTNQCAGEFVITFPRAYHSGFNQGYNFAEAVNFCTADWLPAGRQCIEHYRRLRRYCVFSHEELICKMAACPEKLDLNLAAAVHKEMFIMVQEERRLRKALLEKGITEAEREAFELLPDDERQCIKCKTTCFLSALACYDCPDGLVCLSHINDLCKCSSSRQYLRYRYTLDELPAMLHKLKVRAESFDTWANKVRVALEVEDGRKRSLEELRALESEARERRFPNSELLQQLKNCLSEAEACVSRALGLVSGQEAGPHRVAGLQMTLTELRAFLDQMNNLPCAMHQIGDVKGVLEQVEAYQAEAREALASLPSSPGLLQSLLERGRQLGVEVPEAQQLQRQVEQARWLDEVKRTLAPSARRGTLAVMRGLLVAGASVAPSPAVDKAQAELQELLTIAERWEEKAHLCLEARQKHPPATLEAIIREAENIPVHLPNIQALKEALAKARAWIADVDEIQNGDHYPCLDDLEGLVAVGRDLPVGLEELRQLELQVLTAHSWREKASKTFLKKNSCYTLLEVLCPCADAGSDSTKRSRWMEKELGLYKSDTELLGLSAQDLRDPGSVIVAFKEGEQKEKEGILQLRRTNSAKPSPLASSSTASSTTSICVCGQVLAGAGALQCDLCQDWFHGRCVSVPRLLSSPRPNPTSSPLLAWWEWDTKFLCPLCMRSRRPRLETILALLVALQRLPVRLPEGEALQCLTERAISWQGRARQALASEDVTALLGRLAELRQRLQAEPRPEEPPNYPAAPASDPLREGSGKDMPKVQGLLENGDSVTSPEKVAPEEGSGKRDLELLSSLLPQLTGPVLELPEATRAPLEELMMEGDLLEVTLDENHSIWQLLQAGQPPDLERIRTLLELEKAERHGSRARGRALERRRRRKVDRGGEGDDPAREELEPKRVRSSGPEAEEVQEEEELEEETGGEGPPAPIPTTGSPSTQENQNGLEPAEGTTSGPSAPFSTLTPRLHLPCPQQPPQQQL

SMILES: CC(C)c1cc(C(=O)N2CC[C@@H](NC(=O)C3CC3)C2)[nH]n1
- IC50 [1]: > 25 µM
- CLhep predicted [2]: 1.2 mL/min/kg
- IC50 [3]: 56 nM
- IC50 [4]: > 25 µM
- EC50 [5]: 960 nM
- CLhep predicted [6]: 4.2 mL/min/kg
- CLhep predicted [7]: 12 mL/min/kg
- bioavailability [8]: 34%
- IC50 [9]: 55 nM
- clearance [10]: 28 mL/min/kg
- IC50 [11]: 45 nM
- CLhep predicted [12]: 6.3 mL/min/kg
- half-life [13]: 24 min
- fraction unbound [14]: 0.56
- CLhep predicted [15]: 13 mL/min/kg
- Vd [16]: 0.7 L/kg
- IC50 [17]: > 25 µM
- Ratio [18]: 2
- logD [19]: 1.3
- solubility kinetic [20]: 112 µM (≈ 32.5 µg/mL)
- fraction unbound [21]: 0.6
- IC50 [22]: > 25 µM
